Laboratory results reported in patent US20090062255A1, “TUMOR-TARGETING EVALUATION METHODOLOGY AND COMPOUNDS RELATED THERETO” (THALLION PHARMACEUTICALS INC., priority 2007, published 2009).

Legend:
in vivo = details: CD-1 nu/nu, mouse, iv
[1] = system: HT-29, SF268, MDA-MB-231 and PC-3 cell lines; test: In vitro cytotoxic activity against four cell lines (overall statement); assay type: cell-based; details: second test
Source text: Procedures used for each series of tests are described below.
Compound 2 has an unexpected increase in cytotoxic activity compared to parent Compound 1. […] Cytotoxic activity (GI50) of Compound 2 for the other three strains was outside the expected range of concentrations used in the first tests.

[2] = system: human breast cell line MDA-MB-231; test: Growth inhibitory MTT assay, MDA-MB-231; assay type: cell-based; details: 72 hours, treated over control
Protocol: (§1) Growth inhibitory activity of ECO-4601 (Compound 1) and other dibenzodiazepinone analogs was evaluated on a panel of 4 human tumor cell lines: the human uterine sarcoma MES-SA and its doxorubicin-resistant P-glycoprotein over-expressing variant, MES-SA/DX5 as well as non-aggressive and highly aggressive human breast cell lines, MCF-7 and MDA-MB-231, respectively. These four cell lines were obtained from the American Type Culture Collection (Manassas, Va.) and cultured in RPMI plus 10% fetal bovine serum (FBS) and maintained at 37° C. with 5% CO2.
(§2) Exponentially growing cells (5,000 cells per well time; cell number determined with a hemocytometer) were seeded in 96-well flat-bottom plates and allowed to grow overnight. Cells were then incubated for 72 hours with three different concentrations of ECO-4601 or analogs: 30,10, and 3 μM. The in vitro growth inhibitory activity was determined by a commercial MTT assay. All measurements were done in quadruplicate and each experiment was performed 2-3 times. The lower the value, the more cytotoxic is the compound.

[3] = system: ERK phosphorylation, human pancreatic MiaPaCa-2 cell line (mutated K-Ras); test: EGF-stimulated ERK phosphorylation in MiaPaCa-2 cells; assay type: cell-based
Source text: To evaluate whether ECO-4601 interferes with K-Ras signalling, the human pancreatic MiaPaCa-2 cell line, a tumor cell line known to express mutated K-Ras, was employed.

[4] = system: MES-SA/DX5 (doxorubicin-resistant P-glycoprotein over-expressing variant); test: Growth inhibitory MTT assay, MES-SA/DX5; assay type: cell-based, human; details: 72 hours, treated over control
Protocol: as §1, §2

human EGFR = biological target: T1, human EGFR (Homo sapiens, UniProt P00533); test: Upstate Kinase Profiler, EGFR; assay type: biochemical
T1 construct: purchased Upstate (Kinase Profiler Service; Dundee, UK)
T1 sequence (P00533 25-1210): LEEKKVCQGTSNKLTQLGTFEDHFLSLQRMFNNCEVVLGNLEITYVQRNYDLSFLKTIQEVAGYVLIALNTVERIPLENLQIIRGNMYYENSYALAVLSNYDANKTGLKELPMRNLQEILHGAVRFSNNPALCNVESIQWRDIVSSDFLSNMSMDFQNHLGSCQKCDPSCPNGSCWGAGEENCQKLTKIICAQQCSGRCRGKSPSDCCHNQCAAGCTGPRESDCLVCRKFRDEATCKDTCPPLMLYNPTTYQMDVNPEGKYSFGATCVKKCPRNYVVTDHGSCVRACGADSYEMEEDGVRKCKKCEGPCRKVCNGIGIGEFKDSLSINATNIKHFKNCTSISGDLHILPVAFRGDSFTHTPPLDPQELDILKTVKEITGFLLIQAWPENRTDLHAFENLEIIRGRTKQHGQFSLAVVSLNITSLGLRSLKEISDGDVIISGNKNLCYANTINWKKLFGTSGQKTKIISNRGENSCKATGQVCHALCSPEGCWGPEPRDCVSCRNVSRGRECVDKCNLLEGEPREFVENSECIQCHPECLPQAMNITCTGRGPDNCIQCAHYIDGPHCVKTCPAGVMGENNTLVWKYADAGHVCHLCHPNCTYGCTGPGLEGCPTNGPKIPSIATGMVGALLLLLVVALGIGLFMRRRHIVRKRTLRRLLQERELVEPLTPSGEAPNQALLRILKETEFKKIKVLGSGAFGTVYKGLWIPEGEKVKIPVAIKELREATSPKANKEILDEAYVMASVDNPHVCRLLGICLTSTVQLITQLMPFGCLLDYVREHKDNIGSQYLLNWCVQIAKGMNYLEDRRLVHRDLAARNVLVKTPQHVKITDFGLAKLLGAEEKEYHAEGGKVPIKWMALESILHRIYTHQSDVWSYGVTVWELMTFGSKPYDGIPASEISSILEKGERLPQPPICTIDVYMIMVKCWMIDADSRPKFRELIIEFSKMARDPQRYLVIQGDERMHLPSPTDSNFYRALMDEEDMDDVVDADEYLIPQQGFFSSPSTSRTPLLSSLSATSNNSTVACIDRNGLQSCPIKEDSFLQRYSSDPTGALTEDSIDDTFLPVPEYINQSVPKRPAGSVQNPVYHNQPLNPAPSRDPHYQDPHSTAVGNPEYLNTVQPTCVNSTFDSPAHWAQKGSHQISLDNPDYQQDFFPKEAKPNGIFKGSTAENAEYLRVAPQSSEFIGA
Protocol: Unlike current Ras signalling pathway inhibitors, ECO-4601 is not a direct kinase inhibitor. This was documented by evaluating the effect of ECO-4601 on human EGFR, c-RAF, MEK1, MAPK1 (ERK1) and MAPK2 (ERK2) kinase-activity (Upstate Kinase Profiler™ Service; Dundee, UK). ECO-4601 was tested at 0.5 μM and 5 μM in a final volume of 25 μL according to standard protocols developed by Upstate Ltd. Briefly, purified recombinant human enzymes were incubated with 25 mM Tris pH 7.5 containing EGTA, a specific substrate and γ-^32P-ATP. The reaction was initiated with MgATP mix and incubated for 40 minutes at RT. The reaction was stopped by the addition of 5 μL of a 3% phosphoric acid solution; aliquots were spotted on filters and counted. Detailed procedures are available on the Millipore Upstate website.

[5] = system: human uterine sarcoma MES-SA; test: Growth inhibitory MTT assay, MES-SA; assay type: cell-based; details: 72 hours, treated over control
Protocol: as §1, §2

[6] = system: phosphorylation of Raf-1 and ERK1/2 (Ras-MAPK signaling pathway); test: Western blot of EGF-induced Raf-1 and ERK1/2 phosphorylation in tumor cells; assay type: cell-based, human; details: 10 μM
Protocol: The effect of ECO-4601 on downstream events of Ras signaling was subsequently examined by monitoring the phosphorylation levels of Raf-1 and ERK1/2 by Western blot analysis. To study the effect of ECO-4601 on the Ras-MAPK signaling pathway, exponentially growing cells (human breast MCF-7 tumor cells, human breast MDA-MB-231 tumor cells, human glioma U 87-MG tumor cells and human prostate PC-3 tumor cells) were seeded onto 60 mm tissue culture dishes (0.5 to 0.8×10^6 cells per dish) for 24 h. The media was removed and cells were treated with 10 μM ECO-4601 in culture medium supplemented with 0.1% FBS for 30 min, 1 h, 4 h and 6 h, and subsequently exposed to EGF at 50 ng/mL for 10 min at 37° C. Control plates consisted of cells incubated in culture medium containing 0.1% FBS and 0.05% DMSO (vehicle) with or without EGF stimulation. At the end of each treatment, media was removed and cells rinsed with ice-cold PBS. Cells were then harvested by scraping and cell pellets were lysed in ice-cold RIPA buffer for 20 minutes on ice. Unsolubilized material was pelleted and discarded. The protein concentration of each lysate was quantified using the Bio-Rad protein assay (Bio-Rad Laboratories). Equivalent amounts of protein (20-30 μg protein) were separated on 10% or 12% SDS-PAGE under reducing conditions, transferred onto nitrocellulose membranes (0.2 μm; Bio-Rad Laboratories) and blotted as above with phospho-c-Raf (Ser338) and c-Raf (Cell Signaling Technology Inc., Boston, Mass.), phospho-p44/42 (Thr2O2/Tyr204, p-ERK1/2) and p44/42 (ERK1/2) MAP Kinases (Cell Signaling Technology Inc.) and GAPDH (SantaCruz Biotechnology Inc.).

[7] = system: U 373 astrocytoma cell line; test: MTT cytotoxicity, U 373 cell line; assay type: cell-based; details: U373 MG, 96 h, Human
Protocol: The cytotoxic activity of Compound 1 was further evaluated using a panel of brain tumor cell lines. This study was performed in collaboration with INSERM (Grenoble, France). Tumor cells (5,000 to 10,000 cells per well depending on their doubling time) were plated in 96-well flat-bottom plates and incubated for 24 hours before treatment. Tumor cells were then incubated for 96 hours with seven different concentrations of Compound 1: […], 0.01, and 0.001 μM. The in vitro cytotoxic activity was determined by a standard MTT assay.

SMILES	MTD (in vivo) [mg/kg]	increase in potency compared to Compound 1 [1] [fold]	% T/C at 10 μM [2] [%]	inhibition of EGF-stimulated ERK phosphorylation [3]	% T/C at 10 μM [4] [%]	direct inhibition of EGFR kinase activity (in words) (human EGFR; 0.5 μM and 5 μM)	activity at 0.5 µM (human EGFR; EGFR, 0.5 μM, % of enzyme activity over positive control, read-out: Kinase Activity (%) ± SD) [%]	activity at 5 µM (human EGFR; EGFR, 5 μM, % of enzyme activity over positive control, read-out: Kinase Activity (%) ± SD) [%]	% T/C at 10 μM [5] [%]	amount of total Raf-1 [6]	time to complete inhibition of protein phosphorylation [6] [h]	inhibition of EGF-induced phosphorylation of Raf-1 and ERK1/2 ([6]; MCF-7, MDA-MB-231, U 87-MG and PC-3 cells)	IC50 [7] [µM]
CC(C)=CCC/C(C)=C/CC/C(C)=C/CN1C(=O)c2cccc(O)c2N(C)c2c(O)cc(O)cc21 [Compound 2, 10-farnesyl-4,6,8-trihydroxy-5-methyl-5,10-dihydro-dibenzo[b,e][1,4]diazepin-11-one]	> 100	100	–	–	–	–	–	–	–	–	–	–	–
CC(C)=CCC/C(C)=C/CC/C(C)=C/CN1C(=O)c2cccc(O)c2Nc2c(O)cc(O)cc21 [Compound 1, 10-farnesyl-4,6,8-trihydroxy-5,10-dihydrodibenzo[b,e][1,4]diazepin-11-one]	–	–	38	dose and time dependent inhibition	100	does not directly inhibit	128 ± 6	127 ± 9	78	decrease	≤ 6	strong inhibition	3.8 ± 1.4
